Measurements from ChEMBL document CHEMBL5360642, “Assimiloside A, a Glycolipid with Immunomodulatory Activity from the Northwestern Pacific Marine Sponge Hymeniacidon assimilis” (2023).
Active and inactive are the calls of the source. The calls are words filed in the database; no cut-off is given here.

Legend:
[1] = test system: RAW264.7; assay: Induction of ROS production in mouse RAW264.7 cells assessed as increase in intracellular ROS formation at 10 uM incubated for 3 hrs by DCFH2-DA staining based assay relative to control; type: functional
[2] = test system: RAW264.7; assay: Induction of ROS production in mouse RAW264.7 cells assessed as increase in intracellular ROS formation at 1 uM incubated for 3 hrs by DCFH2-DA staining based assay relative to control; type: functional, cell-based
[3] = test system: RAW264.7; assay: Induction of ROS production in mouse RAW264.7 cells assessed as increase in intracellular ROS formation at 0.01 to 0.1 uM incubated for 3 hrs by DCFH2-DA staining based assay relative to control; type: functional; details: dose 0.01-0.1 µM
[4] = test system: RAW264.7; assay: Immunomodulatory activity in mouse RAW264.7 cells assessed as stimulation of lysosomal activity at 0.01 to 10 uM incubated for 2 hrs by acridine orange based fluorescence microplate reader analysis relative to control; type: functional; details: dose 0.01-10 µM

Structure (SMILES): CC[C@@H](O)CCCCCCCCCC(CCCCCCCCCCC[C@@H]1CCC(=O)O1)O[C@@H]1O[C@H](CO[C@@H]2OC[C@@H](O)[C@H](O)[C@H]2O)[C@@H](O)[C@H](O)[C@H]1O[C@@H]1OC[C@@H](O)[C@H](O)[C@H]1O (some centres undefined)
- Activity [1]: 15%
- Activity [2]: inactive
- Activity [3]: 15%
- Activity [4]: 25%
